Results published in article PMC6412895, “Synthesis, Characterization, and Biological Activity of a Novel Series of Benzo[4,5]imidazo[2,1-b]thiazole Derivatives as Potential Epidermal Growth Factor Receptor Inhibitors” (Molecules, 2019).
pIC50: −log10 of the molar value.

Columns and labels:
[1] = tested on: HeLa cells; assay: MTT anti-proliferative assay, HeLa; format: cell-based, human; conditions: 24 h incubation, EGFR high-expressed cell line
Procedure: (§1) The inhibitory activities of all target compounds against the cervical cancer cell line HeLa, human liver cancer cell line HepG2, human liver cell line HL7702, and human umbilical vein endothelial cell line HUVEC were determined by the 3-(4,5-dimethylthiazol-2-yl)-2,5-diphenyltetrazolium bromide (MTT) assay. As known, the EGFR level of the HeLa cells was highly expressed, while that of the HepG2 cells was low, and the HL7702 cells and HUVEC cells were human normal cells.
(§2) The human cancer cell lines (HeLa and HepG2) and the human normal ones (HL7702 and HUVEC) were chosen to evaluate the antitumor activity and cell toxicity of target compounds in vitro by the MTT assay. HeLa, HepG2, and HUVEC cells were cultured in a Dulbecco’s modified Eagle’s medium (DMEM) supplemented with 10% fetal bovine serum, and HL7702 cells were cultured in a DMEM supplemented with 10% fetal bovine serum. Cells were grown to 80–90% confluence and subjected to no more than 20 cell passages and were left to acclimatize for 24 h before any treatments. The cells were seeded into 96-well plates (8 * 10^4 cells/mL) and incubated at 37 °C in a humidified atmosphere containing 5% CO2 overnight. After 24 h, the cancer cells were treated with the target compounds at 100, 50, 25, 12.5, 6.25, 3.13, and 1.56 μmol/L; the human normal cells HL7702 were treated with 200 and 100 μmol/L of the target ones; and the HUVEC were treated with 100 and 50 μmol/L of the target compounds. After 24 h of incubation, MTT (5 mg/mL) was subsequently added and incubated for 4 h. Next, the culture medium was cleared, and the crystals were dissolved in DMSO. The optical densities (OD) at 490 nm were measured on a universal microplate reader (Bio-Tek instruments, Inc., EL × 800). Inhibitory effects were expressed as the percentage of IC50 value.

[2] = tested on: HepG2 cells; assay: MTT anti-proliferative assay, HepG2; format: cell-based, human; conditions: EGFR low-expressed cell line
Procedure: as §1, §2

[3] = tested on: HL7702 cells; assay: MTT cell toxicity assay, HL7702 normal liver cells; format: cell-based; conditions: human normal liver cell line
Procedure: as §1, §2

[4] = tested on: HUVEC cells; assay: MTT cell toxicity assay, HUVEC; format: cell-based; conditions: 24 h incubation, human normal cells
Procedure: as §1, §2

[5] = molecular target: EGFR kinase (Homo sapiens, UniProt P00533); assay: EGFR kinase assay (Kinase-Glo Plus luminescence); format: biochemical; conditions: 10 µM ATP, 30 °C, 40 minutes
Chain of EGFR kinase (P00533 669-1210 limits assumed): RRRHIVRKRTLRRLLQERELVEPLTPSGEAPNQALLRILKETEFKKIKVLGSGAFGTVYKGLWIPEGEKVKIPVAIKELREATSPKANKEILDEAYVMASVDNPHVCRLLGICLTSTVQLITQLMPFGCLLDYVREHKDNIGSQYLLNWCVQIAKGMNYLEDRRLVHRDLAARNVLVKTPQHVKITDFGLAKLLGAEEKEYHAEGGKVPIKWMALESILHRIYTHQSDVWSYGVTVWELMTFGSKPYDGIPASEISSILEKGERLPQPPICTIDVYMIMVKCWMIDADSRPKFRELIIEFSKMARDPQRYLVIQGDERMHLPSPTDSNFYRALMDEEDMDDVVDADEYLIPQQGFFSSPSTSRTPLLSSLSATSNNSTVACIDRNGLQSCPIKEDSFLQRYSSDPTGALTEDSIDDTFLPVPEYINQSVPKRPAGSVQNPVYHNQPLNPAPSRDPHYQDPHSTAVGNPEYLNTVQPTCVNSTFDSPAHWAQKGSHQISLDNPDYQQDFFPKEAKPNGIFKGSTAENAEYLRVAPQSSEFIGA
Procedure: The EGFR kinase assays of the target compounds were performed by the intrinsic ATPase activity luminescence assay. All the enzymatic reactions were conducted at 30 °C for 40 minutes. The 50 µL reaction mixture contained 40 mM Tris, pH 7.4, 10 mM MgCl2, 0.1 mg/mL BSA, 1 mM DTT, 10 µM adenosine triphosphate (ATP), 0.2 ug/mL PI3 Kinase, and 100 µM lipid substrate. The compounds were diluted in 10% DMSO and 5 µL of the dilution was added to a 50 µL reaction so that the final concentration of DMSO was 1% in all the reactions. The assay was performed using the Kinase-Glo Plus luminescence kinase assay kit, which measures the kinase activity by quantifying the amount of ATP remaining in solution following a kinase reaction. The luminescent signal from the assay was correlated with the amount of ATP present and was inversely correlated with the amount of kinase activity. The IC50 values were calculated using nonlinear regression with a normalized dose−response fit using the Prism GraphPad software (version 6.0, GraphPad Software, San Diego, CA, USA).

[6] = Homo sapiens, HepG2, 24 h incubation

Molecule | pIC50 [1] | pIC50 ([2]; 24 h incubation) | pIC50 ([3]; 24 h incubation) | pIC50 [4] | pIC50 ([1]; Homo sapiens, HeLa) | pIC50 [2, 6] | pIC50 ([3]; L02, 24 h incubation) | pIC50 ([4]; HUVEC) | melting point [°C] | pIC50 [5]
2-(Benzo[4,5]imidazo[2,1-b]thiazol-3-yl)-N-(4-(benzyloxy)phenyl)acetamide [Compound D12] | < 4.00 | < 4.00 | < 3.70 | < 4.00 | – | – | – | – | – | –
2-(Benzo[4,5]imidazo[2,1-b]thiazol-3-yl)-N-(4-(trifluoromethyl)phenyl)acetamide [Compound D18] | 4.36 | – | – | – | – | – | – | – | – | –
O=C(Cc1csc2nc3ccccc3n12)Nc1ccccc1 [Compound D01, 2-(Benzo[4,5]imidazo[2,1-b]thiazol-3-yl)-N-phenylacetamide] | – | – | – | – | < 4.00 | < 4.00 | < 3.70 | < 4.00 | 123 to 125 | –
O=C(Cc1csc2nc3ccccc3n12)Nc1ccc(O)cc1 [Compound D02, 2-(Benzo[4,5]imidazo[2,1-b]thiazol-3-yl)-N-(4-hydroxyphenyl)acetamide] | – | – | – | – | < 4.00 | < 4.00 | < 3.70 | < 4.00 | 101 to 103 | –
O=C(Cc1csc2nc3ccccc3n12)Nc1cccc(O)c1 [Compound D03, 2-(Benzo[4,5]imidazo[2,1-b]thiazol-3-yl)-N-(3-hydroxyphenyl)acetamide] | – | – | – | – | < 4.00 | < 4.00 | < 3.70 | < 4.00 | 111 to 113 | –
O=C(Cc1csc2nc3ccccc3n12)Nc1ccccc1O [Compound D04, 2-(Benzo[4,5]imidazo[2,1-b]thiazol-3-yl)-N-(2-hydroxyphenyl)acetamide] | – | – | – | – | 6.38 | < 4.00 | < 3.70 | < 4.00 | 121 to 123 | 7.26
C=CCOc1ccc(NC(=O)Cc2csc3nc4ccccc4n23)cc1 [Compound D05, N-(4-(Allyloxy)phenyl)-2-(benzo[4,5]imidazo[2,1-b]thiazol-3-yl)acetamide] | – | – | – | – | < 4.00 | < 4.00 | < 3.70 | < 4.00 | 196 to 198 | –
O=C(Cc1csc2nc3ccccc3n12)Nc1cccc([N+](=O)[O-])c1 [Compound D06, 2-(Benzo[4,5]imidazo[2,1-b]thiazol-3-yl)-N-(3-nitrophenyl)acetamide] | – | – | – | – | < 4.00 | < 4.00 | < 3.70 | < 4.00 | 132 to 134 | –
O=C(Cc1csc2nc3ccccc3n12)Nc1ccc([N+](=O)[O-])cc1 [Compound D07, 2-(Benzo[4,5]imidazo[2,1-b]thiazol-3-yl)-N-(4-nitrophenyl)acetamide] | – | – | – | – | < 4.00 | < 4.00 | < 3.70 | < 4.00 | 99 to 101 | –
O=C(Cc1csc2nc3ccccc3n12)Nc1cccc2ccccc12 [Compound D08, 2-(Benzo[4,5]imidazo[2,1-b]thiazol-3-yl)-N-(naphthalen-1-yl)acetamide] | – | – | – | – | 5.60 | < 4.00 | < 3.70 | < 4.00 | 136 to 138 | 7.05
O=C(Cc1csc2nc3ccccc3n12)Nc1ccc(Cl)cc1 [Compound D09, 2-(Benzo[4,5]imidazo[2,1-b]thiazol-3-yl)-N-(4-chlorophenyl)acetamide] | – | – | – | – | 4.85 | < 4.00 | < 3.70 | < 4.00 | 151 to 153 | 7.00
O=C(Cc1csc2nc3ccccc3n12)Nc1ccc(Cl)c(C(F)(F)F)c1 [Compound D10, 2-(Benzo[4,5]imidazo[2,1-b]thiazol-3-yl)-N-(4-chloro-3-(trifluoromethyl)phenyl)acetamide] | – | – | – | – | < 4.00 | < 4.00 | < 3.70 | < 4.00 | 153 to 155 | –
O=C(Cc1csc2nc3ccccc3n12)Nc1ccc(Br)c(F)c1 [Compound D11, 2-(Benzo[4,5]imidazo[2,1-b]thiazol-3-yl)-N-(4-bromo-3-fluorophenyl)acetamide] | – | – | – | – | < 4.00 | < 4.00 | < 3.70 | < 4.00 | 151 to 153 | –
O=C(Cc1csc2nc3ccccc3n12)Nc1ccc(F)c(Br)c1 [Compound D13, 2-(Benzo[4,5]imidazo[2,1-b]thiazol-3-yl)-N-(3-bromo-4-fluorophenyl)acetamide] | – | – | – | – | < 4.00 | < 4.00 | < 3.70 | < 4.00 | 218 to 220 | –
O=C(Cc1csc2nc3ccccc3n12)Nc1ccc(Br)cc1 [Compound D14, 2-(Benzo[4,5]imidazo[2,1-b]thiazol-3-yl)-N-(4-bromophenyl)acetamide] | – | – | – | – | < 4.00 | < 4.00 | < 3.70 | < 4.00 | 107 to 109 | –
Cc1ccccc1NC(=O)Cc1csc2nc3ccccc3n12 [Compound D15, 2-(Benzo[4,5]imidazo[2,1-b]thiazol-3-yl)-N-(2-methylphenyl)acetamide] | – | – | – | – | < 4.00 | < 4.00 | < 3.70 | < 4.00 | 83 to 85 | –
O=C(Cc1csc2nc3ccccc3n12)Nc1cc(F)cc(F)c1 [Compound D16, 2-(Benzo[4,5]imidazo[2,1-b]thiazol-3-yl)-N-(3,5-difluorophenyl)acetamide] | – | – | – | – | 4.49 | < 4.00 | < 3.70 | < 4.00 | 101 to 103 | –
O=C(Cc1csc2nc3ccccc3n12)Nc1ccc(Cl)cc1Cl [Compound D17, 2-(Benzo[4,5]imidazo[2,1-b]thiazol-3-yl)-N-(2,4-dichlorophenyl)acetamide] | – | – | – | – | < 4.00 | < 4.00 | < 3.70 | < 4.00 | 206 to 208 | –
